The source made the active and inactive calls. No cut-off for these calls is given here.
Experiments:
DBTRG-05MG [1] = assay: Induction of cell cycle arrest in human DBTRG-05MG cells assessed as accumulation at S phase at 206 uM after 6 hrs by propidium iodide staining based flow cytometric analysis (reference value: 22.76 +/- 1.56%); type: functional
DBTRG-05MG [2] = assay: Induction of cell cycle arrest in human DBTRG-05MG cells assessed as accumulation at G2/M phase at 206 uM after 6 hrs by propidium iodide staining based flow cytometric analysis (reference value: 30.08 +/- 0.1%); type: functional
[3] = Effect on p38 expression in rat RG2 cells at 206 uM after 48 hrs by Western blot analysis (reference value: 1); type: functional
RG2 [4] = assay: Induction of DNA damage in rat RG2 cells assessed as Chk2 phosphorylation at Thr68 at 206 uM after 48 hrs by Western blot analysis (reference value: 1); type: functional
DBTRG-05MG [5] = assay: Synergistic cytotoxicity against human DBTRG-05MG cells assessed as synergistic effect index at 89.9 uM after 48 hrs in presence of 103 uM TMZ by MTT assay; type: functional
DBTRG-05MG [6] = assay: Synergistic cytotoxicity against human DBTRG-05MG cells assessed as synergistic effect index at 134.9 uM after 48 hrs in presence of 103 uM TMZ by MTT assay; type: functional
DBTRG-05MG [7] = assay: Synergistic cytotoxicity against human DBTRG-05MG cells assessed as combination index at 112.4 uM after 48 hrs in presence of 515.1 uM TMZ by MTT assay; type: functional
RG2 [8] = assay: Synergistic cytotoxicity against rat RG2 cells assessed as synergistic effect index at 134.9 uM after 48 hrs in presence of 103 uM TMZ by MTT assay; type: functional
RG2 [9] = assay: Synergistic cytotoxicity against rat RG2 cells assessed as combination index at 89.9 uM after 48 hrs in presence of 206 uM TMZ by MTT assay; type: functional
RG2 [10] = assay: Synergistic cytotoxicity against rat RG2 cells assessed as combination index at 134.9 uM after 48 hrs in presence of 515.1 uM TMZ by MTT assay; type: functional
[11] = Synergistic cytotoxicity against rat CTX TNA2 cells assessed as synergistic effect index at 89.9 uM after 48 hrs in presence of 206 uM TMZ by MTT assay; type: cell-based; details: ctx tna2, 48 h
[12] = Synergistic cytotoxicity against rat CTX TNA2 cells assessed as combination index at 112.4 uM after 48 hrs in presence of 103 uM TMZ by MTT assay; type: cell-based; details: ctx tna2, 48 h
[13] = Synergistic cytotoxicity against rat CTX TNA2 cells assessed as combination index at 112.4 uM after 48 hrs in presence of 309 uM TMZ by MTT assay; type: cell-based; details: ctx tna2, 48 h
DBTRG-05MG [14] = assay: Induction of cell cycle arrest in human DBTRG-05MG cells assessed as accumulation at G0/G1 phase at 112.4 uM after 6 hrs by propidium iodide staining based flow cytometric analysis (reference value: 47.16 +/- 1.55%); type: functional
DBTRG-05MG [15] = assay: Induction of cell cycle arrest in human DBTRG-05MG cells assessed as accumulation at G0/G1 phase at 112.4 uM after 24 hrs by propidium iodide staining based flow cytometric analysis (reference value: 47.16 +/- 1.55%); type: functional
RG2 [16] = assay: Induction of cell cycle arrest in rat RG2 cells assessed as accumulation at G0/G1 phase at 112.4 uM after 6 hrs by propidium iodide staining based flow cytometric analysis (reference value: 57.81 +/- 1.9%); type: functional
RG2 [17] = assay: Induction of cell cycle arrest in rat RG2 cells assessed as accumulation at G2/M phase at 112.4 uM after 12 hrs by propidium iodide staining based flow cytometric analysis (reference value: 20.04 +/- 0.55%); type: functional
RG2 [18] = assay: Induction of cell cycle arrest in rat RG2 cells assessed as accumulation at S phase at 112.4 uM after 48 hrs by propidium iodide staining based flow cytometric analysis (reference value: 20.15 +/- 2.44%); type: functional
RG2 [19] = assay: Induction of cell cycle arrest in rat RG2 cells assessed as CyclinA expression at 112.4 uM after 48 hrs in presence of TMZ by Western blot analysis (reference value: 1); type: functional
[20] = Effect on p38 expression in human DBTRG-05MG cells at 112.4uM after 48 hrs by Western blot analysis (reference value: 1); type: functional
[21] = target: MAP kinase p38 (Homo sapiens) (UniProt O15264+Q15759+Q16539+P53778); assay: Inhibition of p38 phosphorylation at Tyr182 residues in human DBTRG-05MG cells at 112.4uM after 48 hrs by Western blot analysis (reference value: 1); type: cell-based
[22] = Effect on JNK expression in rat RG2 cells at 112.4uM after 48 hrs by Western blot analysis (reference value: 1); type: functional
[23] = Effect on ERK expression in rat RG2 cells at 112.4uM after 48 hrs in presence of TMZ by Western blot analysis (reference value: 1); type: functional
DBTRG-05MG [24] = assay: Induction of apoptosis in human DBTRG-05MG cells assessed as increase in apoptotic body formation at 112.4 uM after 48 hrs by TUNEL assay; type: functional, cell-based
RG2 [25] = assay: Induction of apoptosis in rat RG2 cells assessed as increase in apoptotic body formation at 112.4 uM after 48 hrs in presence of TMZ by TUNEL assay; type: functional, cell-based
DBTRG-05MG [26] = assay: Induction of apoptosis in human DBTRG-05MG cells assessed as Bcl2 expression at 112.4 uM after 48 hrs by Western blot analysis (reference value: 1); type: functional
RG2 [27] = assay: Induction of apoptosis in rat RG2 cells assessed as Bcl2 expression at 112.4 uM after 48 hrs in presence of TMZ by Western blot analysis (reference value: 1); type: functional
RG2 [28] = assay: Induction of DNA damage in rat RG2 cells at 112.4 uM after 48 hrs in presence of TMZ by p.H2A.X staining based fluorescent immunocytochemistry method; type: functional, cell-based
RG2 [29] = assay: Induction of DNA damage in rat RG2 cells assessed as H2A.X phosphorylation at ser139 at 112.4 uM after 48 hrs in presence of TMZ by Western blot analysis (reference value: 1); type: functional
[30] = Effect of MDR1 expression in human DBTRG-05MG cells at 112.4 uM after 48 hrs by Western blot analysis; type: functional
[31] = Inhibition of TMZ-induced drug resistance in human DBTRG-05MG cells assessed as MGMT expression at 112.4 uM after 48 hrs by Western blot analysis (reference value: 1.3); type: functional
[32] = Inhibition of TMZ-induced drug resistance in rat RG2 cells assessed as MDR1 expression at 112.4 uM after 48 hrs by Western blot analysis (reference value: 5.3); type: functional
DBTRG-05MG [33] = assay: Potentiation of TMZ-induced antitumor activity against human DBTRG-05MG cells xenografted in BALB/c nude mouse assessed as reduction in tumour growth at 75 mg/kg, sc co-treated with TMZ for 18 days; type: functional, organism-based; details: time 18.0 day
DBTRG-05MG [34] = assay: Potentiation of TMZ-induced antitumor activity against human DBTRG-05MG cells xenografted in BALB/c nude mouse assessed as reduction in tumor growth at 75 mg/kg, sc co-treated with TMZ for 18 days by PCNA staining-based bright field microscopic analysis; type: functional, organism-based; details: time 18.0 day

With `Cn1nnc2c(C(N)=O)ncn2c1=O` [TEMOZOLOMIDE] as the compound, how does the Activity (DBTRG-05MG [1]) read?
Its Activity is 24.76%.

What about the Activity (DBTRG-05MG [2]) of the same compound?
The Activity was 34.67%.

What about the “fold change (FC)” value [3] of the same compound?
The value was 0.7.

What about the “fold change (FC)” value (RG2 [4]) of the same compound?
The value was 1.3.

Which Activity_index (DBTRG-05MG [5]) does the source give for `C[C@@H]1CC[C@H]2C(C)(C)[C@H]3C[C@@]12CC[C@@]3(C)O` [CEDROL] here?
The Activity_index was 0.66.

What about the Activity_index (DBTRG-05MG [6]) of the same compound?
The Activity_index was 0.86.

What about the CI (DBTRG-05MG [7]) of the same compound?
The CI was 0.7.

What about the Activity_index (RG2 [8]) of the same compound?
Its Activity_index is 0.9.

What about the CI (RG2 [9]) of the same compound?
Its CI is 0.98.

And the CI (RG2 [10])?
The CI was 1.02.

What about the Activity_index [11] of the same compound?
The Activity_index was 0.39.

And the CI [12]?
Its CI is 1.24.

What about the CI [13] of the same compound?
Its CI is 1.09.

What about the Activity (DBTRG-05MG [14]) of the same compound?
Its Activity is 53.26%.

What about the Activity (DBTRG-05MG [15]) of the same compound?
Its Activity is 57.59%.

And the Activity (RG2 [16])?
Its Activity is 60.95%.

And the Activity (RG2 [17])?
Its Activity is 18.1%.

What about the Activity (RG2 [18]) of the same compound?
Its Activity is 16.62%.

What about the “fold change (FC)” value (RG2 [19]) of the same compound?
The value was 0.7.

And the “fold change (FC)” value [20]?
The value was 1.1.

And the fold change (FC) [21]?
Its fold change (FC) is 1.

And the “fold change (FC)” value [22]?
The value was 0.8.

What about the “fold change (FC)” value [23] of the same compound?
The value was 0.7.

What about the Activity (DBTRG-05MG [24]) of the same compound?
Its Activity is “Active”.

And the Activity (RG2 [25])?
Its Activity is “Active”.

And the “fold change (FC)” value (DBTRG-05MG [26])?
Its value is 1.3.

What about the “fold change (FC)” value (RG2 [27]) of the same compound?
Its value is 0.9.

And the Activity (RG2 [28])?
The Activity was “Active”.

And the “fold change (FC)” value (RG2 [29])?
Its value is 1.3.

And the “fold change (FC)” value [30]?
Its value is 1.2.

What about the “fold change (FC)” value [31] of the same compound?
The value was 0.8.

And the “fold change (FC)” value [32]?
Its value is 2.

What about the Activity (DBTRG-05MG [33]) of the same compound?
The Activity was “Active”.

And the Activity (DBTRG-05MG [34])?
The Activity was “Active”.

— ChEMBL document CHEMBL4699511, “Cedrol, a Sesquiterpene Alcohol, Enhances the Anticancer Efficacy of Temozolomide in Attenuating Drug Resistance via Regulation of the DNA Damage Response and MGMT Expression” (J Nat Prod, 2020)
